Assay results from patent publication US20240207198A1, “ELECTROSPUN STRUCTURES HAVING A PHARMACEUTICAL AND METHODS OF MAKING AND USING THE SAME” (NFS IP Holdings, LLC, priority 2020, published 2024).
Counter-ions that a name gives are not always drawn.

Columns and labels:
[1] = Oral vs. sublingual delivery of cannabidiol in a porcine model (plasma concentration by HPLC); type: in vivo, Yorkshire pigs; conditions: sublingual electrospun polyethylene oxide fiber scaffold ("strip") vs oral "gummy"; 10 mg cannabidiol each; representative pig 7-18; blood 3-120 min; FIG. 3
Method: Four healthy Yorkshire pigs were selected to receive both oral and sublingual administrations of cannabidiol (i.e., each animal received both an oral administration and a sublingual administration separated by 48 hours). For the sublingual administration, a scaffold comprising fibers as described herein was used for each animal. Specifically, the fibers were electrospun using a polymer solution comprising cannabidiol and 13 wt % 100,000 molecular weight polyethylene oxide dissolved in dichloromethane. The cannabidiol was dispersed within the resulting electrospun polyethylene oxide fibers, as described herein. The resulting electrospun polyethylene oxide fibers comprised 40 wt % cannabidiol (relative to the polyethylene oxide mass) and 50 wt % confectionary sugar (i.e., for every 10 mg of polyethylene oxide, 4 mg of cannabidiol and 5 mg of confectionary sugar were added).
(§1) The scaffold was placed under the tongue of each animal and allowed to dissolve in place. A catheter was placed in the animal's vein and used to withdraw blood at baseline and at 3, 9, 15, 30, 45, 60, and 120 minutes post-administration. […]
Each blood sample was analyzed using high-performance liquid chromatography (HPLC) to determine the plasma concentration of cannabidiol in ng/mL. […]

[2] = Oral vs. sublingual delivery of sildenafil citrate in a porcine model (plasma concentration by HPLC); type: in vivo, Yorkshire pigs; conditions: sublingual electrospun polyethylene oxide fiber scaffold ("strip") vs oral "pill", 25 mg sildenafil citrate each, representative pig 4-17, FIG. 4
Method: Four healthy Yorkshire pigs were selected to receive both oral and sublingual administrations of sildenafil citrate (i.e., each animal received both an oral administration and a sublingual administration separated by 48 hours). For the sublingual administration, a scaffold comprising fibers as described herein was used for each animal. Specifically, the fibers comprised were electrospun using a polymer solution comprising sildenafil citrate and 13 wt % 100,000 molecular weight polyethylene oxide dissolved in dichloromethane. The sildenafil citrate was dispersed within the resulting electrospun polyethylene oxide fibers, as described herein. The resulting electrospun polyethylene oxide fibers comprised 25 wt % sildenafil citrate (relative to the polyethylene oxide mass) and 50 wt % confectionary sugar (i.e., for every 10 mg of polyethylene oxide, 2.5 mg of sildenafil citrate and 5 mg of confectionary sugar were added).
as §1
Each blood sample was analyzed using HPLC to determine the plasma concentration of sildenafil citrate in ng/mL. […]

Structure (SMILES) | plasma concentration of cannabidiol, sublingual compared to oral administration [1] | duration of the higher plasma concentration of sildenafil citrate, sublingual compared to oral administration [2] | plasma concentration of sildenafil citrate, sublingual compared to oral administration ([2]; blood 3-120 min)
C=C(C)[C@@H]1CCC(C)=C[C@H]1c1c(O)cc(CCCCC)cc1O [cannabidiol] | higher plasma concentration in a shorter period of time |  | 
CCCc1nn(C)c2c(=O)[nH]c(-c3cc(S(=O)(=O)N4CCN(C)CC4)ccc3OCC)nc12 [sildenafil citrate] |  | maintained the higher plasma concentration over a longer period of time | higher plasma concentration in a shorter period of time
